Patent US7091038B2, “Ecdysone receptor-based inducible gene expression system” (RheoGene, Inc., priority 2000, dated 2006)

Experiments:
GAL4CfEcRVP16 = test: Transactivation of reporter gene through switch 1.6 in CHO cells; format: cell-based, Choristoneura fumiferana; conditions: switch 1.6, pGAL4RELuc
Experimental: This construct was prepared so that both the GAL4 DNABD and the VP16AD were placed on the same molecule. GAL4DNABD (SEQ ID NO: 43) and VP16AD (SEQ ID NO: 49) were fused to CfEcRDEF (SEQ ID NO: 3) at N-and C-termini respectively.
(§1) The cells were harvested and reporter activity was assayed.
(§2) Cells were harvested 24–48 hr after adding ligands. […] Twenty μl of lysate was assayed.

[1] = tested on: EcR/RXR receptor combinations; test: Truncated CfEcR and MmRXR receptor combinations, luciferase reporter in NIH3T3 cells; format: cell-based, Choristoneura fumiferana; Mus musculus; conditions: 0, 1, 5 or 25 uM ligand for 48 hr, FIGS. 11–14
Experimental: Briefly, polynucleotides encoding EcR or RXR receptors were truncated at the junctions of A/B, C, D, E and F domains and fused to either a GAL4 DNA binding domain encoding polynucleotide (SEQ ID NO: 43) for CfEcR, or a VP16 activation domain encoding polynucleotide (SEQ ID NO: 49) for MmRXR as described in Example 1. The resulting receptor truncation/fusion polypeptides were assayed in NIH3T3 cells. Plasmid pFRLUC (Stratagene) encoding a luciferase polypeptide was used as a reporter gene construct and pTKRL (Promega) encoding a Renilla luciferase polypeptide under the control of the constitutive TK promoter was used to normalize the transfections as described above. The analysis was performed in triplicates and mean luciferase counts were determined as described above. […]

CfVgRXR + MmRXR = test: Transactivation of reporter gene through switch 1.9 in 293 cells; format: cell-based, Choristoneura fumiferana; Mus musculus; conditions: switch 1.9, pIND(SP1)LacZ
Experimental: This example was prepared in the same way as switch 1.8 except DmEcR was replaced with a truncated CfEcR comprising a partial A/B domain and the complete CDEF domains [SEQ ID NO: 70 (polynucleotide) and SEQ ID NO: 71 (polypeptide)].
as §1
The same procedures described for CHO were followed for 293 cells except that the cells were plated in biocoated plates to avoid clumping.
as §2

For CCc1c(OC)cccc1C(=O)NN(C(=O)c1cc(C)cc(C)c1)C(C)(C)C [N-(2-ethyl-3-methoxybenzoyl)-N′-(3,5-dimethylbenzoyl)-N′-t-butylhydrazine], the “Mean Fold Activation with 50 μM N-(2-ethyl-3-methoxybenzoyl)-N′-(3,5-dimethylbenzoyl)-N′-t-butylhydrazine” value (GAL4CfEcRVP16) was 9 fold, the “Sensitivity of the EcR/RXR switch to the ligand” value [1] was “much more sensitive” and the “Mean Fold Activation Through N-(2-ethyl-3-methoxybenzoyl)-N′-(3,5-dimethylbenzoyl)-N′-t-butylhydrazine” value (CfVgRXR + MmRXR) was 12 fold.
